# From US10844102B2, “Peptides, compositions, and methods for stimulating subcutaneous adipogenesis” (The Regents of the University of California, priority 2014, dated 2020)
# “Also recorded” adds a separate entry of the source.
# B1: 114 amino acid protein fragment: RHAMM carboxy-terminal sequence from mouse RHAMM produced as a recombinant protein (protein, listed as Mus musculus)
# chain: LDAFEAEKQALLNEHGATQEQLNKIRDSYAQLLGHQNLKQKIKHVVKLKDENSQLKSEVSKLRSQLVKRKQNELRLQGELDKALGIRHFDPSKAFCHASKENFTPLKEGNPNCC
# How the values were obtained:
# adipogenesis = assay: Adipogenic activity of peptides and peptide fragments, assay not specified; assay type: cell-based; settings: assay not specified
# Method: In the second approach, a series of truncations and alanine mutagenesis on peptide B were performed in order to identify the smallest active sequence. Fragments of peptide B were prepared and assayed for adipogenesis. First, fragments corresponding to the two halves of peptide B were prepared (KLKDENS (SEQ ID NO: 8) and SQLKSEVSK (SEQ ID NO: 13)).
# 3T3L cells = assay: Adiponectin ELISA on supernatant medium of primed 3T3L cells; assay type: cell-based, mouse; settings: 10 μg/ml peptide, versus no insulin control
# Method: 3T3L cells were cultured in T75 culture flasks, in expansion medium (Millipore Corporation), and stored in a 5% CO2 humidified incubator at 37° C. Media was changed every two days until the cells reached 80% confluency. Cells were subcultured in a 96 well plate with a seeding density of 3×10^4 cells per cm^2.
# Once cells had just reached confluency, expansion media was replaced with 0.5 mL of Adipogenic Induction Media per well containing 5% serum that had been screened for an ability to maintain stem cells in an undifferentiated state (LifeTechnologies). Cells were incubated for 48 hours at 37° C., 5% CO2. The Adipogenic Induction Media contained DMEM (low glucose, Gibco) +5% serum (LifeSciences) with 0.5 mM IBMX solution, 1 μM Dexamethasone Solution, and 100 μM Indomethacin Solution (priming stimulus). After 48 hr the Adipogenic Induction media was replaced with new media containing 10 μg/ml insulin alone (positive control), or 10 μg/ml peptide (experimental conditions). Negative controls were DMEM +5% serum only. Plates were incubated for two days prior to adiponectin ELISA analyses. Peptides were added daily at 10 μg/ml throughout the remainder of the experiment.
# Adiponectin present in the supernatant medium was measured using a mouse adiponectin ELISA (Novex, LifeTechnologies). Briefly, supernatant medium was collected and diluted 1:100. One hundred microliters of the diluted supernatant medium was added to each well of the ELISA plate and incubated for one hour at 37° C. Wells were washed three times with 1× wash buffer and then 100 μl of antibody was added to each well and incubated for one hour at 37° C. The wells were then washed and incubated with 100 μl detector antibody for 1 hr at 37° C. The wells were washed five times with wash buffer and 100 μl of substrate solution was added to each well and incubated for twenty minutes in the dark. The reaction was then stopped by the addition of 100 μl stop solution. Plates were read at 450 nm and concentrations of adiponectin were derived from a standard curve included in the ELISA plate.
# Insulin and the KSEVSK peptide (SEQ ID NO: 7) served as positive controls. […] In FIG. 7, values marked by asterisks represent significant changes relative to the no insulin control (i.e., the negative control) using a two-tailed Student's T test, p<0.05.
# [1] = tested on: rat mesenchymal stem cells; assay: Assay 1: adipogenesis, Oil Red O staining (transdifferentiation of fibroblast lineages into adipocytes); assay type: cell-based; settings: for adipogenesis quantified by Oil Red O staining, fold change relative to the negative control: Assay 1, three weeks
# Method: Reagents: (1) 3-isobutyl-1-methylxanthine (IBMX) solution: 0.5M in DMSO; (2) Insulin Solution: 10 mg/mL recombinant human insulin; (3) Dexamethasone Solution in 10 mM in ethanol; (4) Oil Red O (0.36% in 60% isopropanol).
# Adipogenesis Initiation Media: mesenchymal stem cell expansion media/0.5 mM IBMX/1 μM dexamethasone. Mesenchymal stem cell expansion media is commercially available from Millipore. The IBMX Solution was diluted 1:1000 and the Dexamethasone Solution was diluted 1:10,000 in expansion media containing antibiotics and antimycotics. The prepared media was stored at 4° C.
# Adipogenesis Progression Media for positive control: mesenchymal stem cell expansion media/10 μg/mL insulin. The Insulin Solution was diluted 1:1000 in the expansion media and stored at 4° C.
# Experimental Adipogenesis Progression Media: mesenchymal stem cell expansion media/1-100 μg/mL RHAMM antagonist peptides.
# Adipogenesis Maintenance Media: mesenchymal stem cell expansion media containing antibiotics and antimycotics.
# Negative Control Media: Dulbecco's Modified Eagle's Medium (DMEM)/10% normal calf serum.
# Pre-adipocyte stem cells including bone marrow mesenchymal stem cells and fibroblasts were propagated using standard tissue culture methods. Cells were trypsinized to remove the cells from the substratum. The trypsin was neutralized and cells were counted using a hemocytometer. Cells were resuspended at 20,000 cells/mL in expansion media. 1 mL of cell suspension was plated per well of 48-well plate, with several wells left empty for blank well (blank control) staining.
# Cells were incubated until they reached confluency. When cells were fully confluent, the expansion media was replaced with 0.5 mL of Adipogenesis Initiation Media. For negative controls (no insulin, no peptides), expansion media only was used at this step and for subsequent media changes. For all media changes, media was replaced as gently as possible to avoid disturbing the monolayer.
# Cells were incubated in Adipogenesis Initiation Media for 72 hours at 37° C., 5% CO2. 0.5 mL media was then removed from each well, and replaced with 0.5 mL of either positive control or experimental Adipogenesis Progression Media per well. Cells were again incubated for 96 hours at 37° C., 5% CO2, after which time media was replaced every 48 hours with Adipogenesis Maintenance Media (0.5 mL of media was removed from each well and replaced with 0.5 mL Adipogenesis Maintenance Media per well). Media added to empty wells served as blank controls for blank well background staining. Cells were incubated in Adipogenesis Maintenance Medium for at least 96 hours at 37° C., 5% CO2 after which time media was replaced with Adipogenesis Maintenance Medium. Lipid droplets had appeared by the time Adipogenesis Maintenance Medium was initially added and continued to accumulate and increase in size for 7-14 days. Experiments were terminated between seven and fourteen days after the initial addition of Adipogenesis Maintenance Medium.
# For quantification of Oil Red O staining, media was removed and cells were washed twice with PBS, using care to gently add the PBS. Cells were then fixed in 4% paraformaldehyde (0.5 mL/well) and incubated for 30 minutes. The fixation solution was then removed and wells were washed two times with 1 mL of phosphate buffered saline (PBS) and once with 1 mL Milli-Q water. 0.25 mL Oil Red O solution was added per well of 48-well plate, including to the wells lacking cells, but containing media. Cells were incubated for 15 minutes at room temperature. The staining solution was then removed and wells were washed two times with 1 mL of Milli-Q water and once with washing solution (63% isopropanol in water).
# Adipogenesis was quantified using a spectrophotometer. 0.25 mL Dye Extraction Solution (isopropyl alcohol) was added per well, and the plate was set on an orbital shaker or platform rocker for 30 minutes. […]
# [2] = tested on: rat mesenchymal stem cells; assay: Assay 2: adipogenesis, Oil Red O staining (differentiation of pre-adipocytes into adipocytes); assay type: cell-based; settings: for adipogenesis quantified by Oil Red O staining, fold change relative to the negative control: Assay 2, three weeks; for adipogenic activity in Assay 2: Assay 2, Oil Red O, concentration not given
# Method: Reagents: The Dexamethasone, IBMX, Insulin, and Oil Red O Solutions were the same as described above for assay 1. Indomethacin Solution contained 10 mM indomethacin in methanol.
# Adipogenesis Maintenance Media was prepared as described above.
# Adipogenesis Induction Media: To prepare 501.5 mL of Adipogenesis Induction Media, 50 μL of the 10 mM stock Dexamethasone Solution, 500 μL of the 0.5 M IBMX stock solution, 500 μL of the 10 mg/ml stock Insulin Solution, 5 ml of a 10 mM stock Indomethacin Solution, and 5 mL of a 100× stock solution of penicillin and streptomycin were added to 490 mL of mesenchymal stem cell expansion media.
# Pre-adipocyte stem cells, bone marrow mesenchymal stem cells or fibroblasts such as dermal reticular and papillary fibroblasts were propagated using standard tissue culture methods. Cells were trypsinized to remove cells from the substratum, the trypsin was neutralized, and cells were counted using a hemocytometer. Cells were resuspended at 20,000 cells/ml in DMEM containing 10% calf serum. 1 mL of cell suspension per well was plated in a 48-well plate, with several wells left empty for blank well (blank control) staining.
# Cells were incubated for 2 days overnight and had reached confluency at this point. Media was removed from each well and replaced with 0.5 ml Adipogenesis Induction Media. For negative control (no insulin, no peptide) wells, expansion medium only was used at this step and for subsequent media changes. For all media changes, media was replaced as gently as possible to avoid disturbing the monolayer.
# Cells were incubated for 72 hours at 37° C., 5% CO2. Media was removed and replaced with 0.5 ml of Adipogenesis Maintenance Media containing either RHAMM antagonist peptides (experimental group) or insulin (concentration as in the Adipogenesis Induction Media and used as a positive control). Cells were incubated for at least 96 hours in this media at 37° C., 5% CO2. Media was replaced every 48 hours and experiments were terminated between seven and fourteen days after addition of insulin or peptides.
# Media was removed and Oil Red O staining was performed as described above for assay 1.
# Assay 1 is an assay that promotes transdifferentiation of fibroblasts into adipocytes, whereas Assay 2 promotes differentiation of multi-potential mesenchymal progenitor cells into adipocytes. Immortalized rat bone marrow mesenchymal stem cells were used for both assays. These cells contain cells of different lineages, including fibroblasts, pre-adipocytes, pre-chondrocytes and pre-osteoblasts. Thus, Assay 1 was used to promote transdifferentiation of fibroblast lineages into adipocytes and Assay 2 was used to promote differentiation of the pre-adipocytes into adipocytes.
# As described in Example 1 above, the priming stimulus for Assay 1 includes IBMX (3-isobutyl-1-methylxanthine) and dexamethasone, and then insulin as the final adipogenic stimulus. The priming stimulus for assay 2 includes IBMX, dexamethasone and indomethacin, and then insulin as the final adipogenic stimulus.
# Adipogenesis was quantified by Oil Red O staining. The peptide was tested at concentrations of 5 and 50 μg/ml over a period of three weeks. Cells were plated in 48-well culture plates, and the purity of the peptides was >95%. All data are presented as the fold change relative to the negative control (Ctr(−))±standard error. The KSEVSK 6-mer (SEQ ID NO: 7) was used as a positive control.
# [3] = earlier reports, background and U.S. Pat. No. 6,271,344; cited from earlier work
# mesenchymal stem cell = settings: commercially available mesenchymal stem cell kit; as described in WO 2014/082042; cited from earlier work
molecule,measurement,setting,value
SQLKSEVSK (listed as Homo sapiens),adipogenic activity,adipogenesis,found to be adipogenic
LKSEVSK (listed as Homo sapiens),adipogenic activity,adipogenesis,also found to be adipogenic
KLKDENS (listed as Homo sapiens),adipogenic activity,adipogenesis,did not exhibit adipogenic activity; also recorded: lack adipogenic activity
KTSSHHV (listed as Arabidopsis thaliana),adipogenic activity in the adiponectin assay (adiponectin secretion),3T3L cells,lack an ability to promote adipogenesis
KLKDENSQ (listed as Homo sapiens),"adipogenesis quantified by Oil Red O staining, fold change relative to the negative control",[1]; peptide 5 μg/ml,significant adipogenic effect
same,"adipogenesis quantified by Oil Red O staining, fold change relative to the negative control",[1]; peptide 50 μg/ml,significant adipogenic effect
same,adipogenic activity,adipogenesis,are adipogenic
same,"adipogenesis quantified by Oil Red O staining, fold change relative to the negative control",[2]; peptide 5 μg/ml,significant adipogenic effect
same,"adipogenesis quantified by Oil Red O staining, fold change relative to the negative control",[2]; peptide 50 μg/ml,significant adipogenic effect
STMMSRSHK,adipogenic activity,adipogenesis,found to have adipogenic activity
KLQEELNKV (Ovis aries),"adipogenesis quantified by Oil Red O staining, fold change relative to the negative control",[1]; peptide 5 μg/ml,significantly increased adipogenesis
same,"adipogenesis quantified by Oil Red O staining, fold change relative to the negative control",[1]; peptide 50 μg/ml,significantly increased adipogenesis
same,"adipogenesis quantified by Oil Red O staining, fold change relative to the negative control",[2]; peptide 5 μg/ml,only observed when a concentration of 50 μg/ml was used
same,"adipogenesis quantified by Oil Red O staining, fold change relative to the negative control",[2]; peptide 50 μg/ml,significantly increased adipogenesis
KTRSHHV,"adipogenesis quantified by Oil Red O staining, fold change relative to the negative control",[1]; peptide 5 μg/ml,significant increase in adipogenesis
same,adipogenic activity,adipogenesis,has adipogenic activity; also recorded: is adipogenic
same,adipogenic activity in Assay 2,[2],not in assay 2
KTRSHHI (listed as Monodelphis domestica),adipogenic activity in Assay 1,"[1]; Assay 1, Oil Red O, concentration not given",ablated adipogenic activity
same,adipogenic activity in Assay 2,[2],ablated adipogenic activity
STMMSRSHKTRSCHH,binding to hyaluronan (HA),[3],binds to HA
B1,adipogenesis,mesenchymal stem cell,promoted adipogenesis
